Data: patent US9695155B2, “Herbicidal substituted pyrimidinyloxy benzene compounds” (E. I. DU PONT DE NEMOURS AND COMPANY, priority 2013, dated 2017)

Tests used:
barnyardgrass [1] = test: Test A preemergence; assay type: in vivo, Echinochloa crus-galli; settings: for Plant response rating, Barnyardgrass: 31 g ai/ha, 0 to 100 scale where 0 is no effect and 100 is complete control, visual, approximately 10 days; for Barnyardgrass plant response rating (0 to 100 scale, 0 is no effect, 100 is complete control): 125 g ai/ha
Outline: (§1)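 Compounds in non-phytotoxic solvent with surfactant applied as soil spray preemergence, or postemergence to plants 2-10 cm at one- to two-leaf stage, in loam/sand. After approximately 10 days in greenhouse, injury rated visually versus untreated controls, 0 (no effect) to 100 (complete control).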

kochia [2] = test: Test A preemergence; assay type: in vivo, Kochia scoparia; settings: for Plant response rating, Kochia: 31 g ai/ha, 0 to 100 scale where 0 is no effect and 100 is complete control, visual, approximately 10 days; for Kochia plant response rating (0 to 100 scale): 125 g ai/ha
Outline: as §1

ragweed [3] = test: Test A preemergence; assay type: in vivo, Ambrosia elatior; settings: for Plant response rating, Ragweed: 31 g ai/ha, 0 to 100 scale where 0 is no effect and 100 is complete control, visual, approximately 10 days; for Ragweed plant response rating (0 to 100 scale): 125 g ai/ha
Outline: as §1

Italian ryegrass [4] = test: Test A preemergence; assay type: in vivo, Lolium multiflorum; settings: for Plant response rating, Ryegrass, Italian: 31 g ai/ha, 0 to 100 scale where 0 is no effect and 100 is complete control, visual, approximately 10 days; for Ryegrass, Italian plant response rating (0 to 100 scale): 125 g ai/ha
Outline: as §1

giant foxtail [5] = test: Test A preemergence; assay type: in vivo, Setaria faberii; settings: for Plant response rating, Foxtail, Giant: 31 g ai/ha, 0 to 100 scale where 0 is no effect and 100 is complete control, visual, approximately 10 days; for Foxtail, Giant plant response rating (0 to 100 scale): 125 g ai/ha
Outline: as §1

pigweed [6] = test: Test A preemergence; assay type: in vivo, Amaranthus retroflexus; settings: for Plant response rating, Pigweed: 31 g ai/ha, 0 to 100 scale where 0 is no effect and 100 is complete control, visual, approximately 10 days; for Pigweed plant response rating (0 to 100 scale): 125 g ai/ha
Outline: as §1

barnyardgrass [7] = test: Test A postemergence; assay type: in vivo, Echinochloa crus-galli; settings: 0 to 100 scale, 0 no effect, 100 complete control
Outline: as §1

kochia [8] = test: Test A postemergence; assay type: in vivo, Kochia scoparia; settings: 0 to 100 scale, 0 no effect, 100 complete control
Outline: as §1

ragweed [9] = test: Test A postemergence; assay type: in vivo, Ambrosia elatior; settings: 0 to 100 scale, 0 no effect, 100 complete control
Outline: as §1

Italian ryegrass [10] = test: Test A postemergence; assay type: in vivo, Lolium multiflorum; settings: 0 to 100 scale, 0 no effect, 100 complete control
Outline: as §1

giant foxtail [11] = test: Test A postemergence; assay type: in vivo, Setaria faberii; settings: 0 to 100 scale, 0 no effect, 100 complete control
Outline: as §1

pigweed [12] = test: Test A postemergence; assay type: in vivo, Amaranthus retroflexus; settings: 0 to 100 scale, 0 no effect, 100 complete control
Outline: as §1

wheat = test: Test A postemergence; assay type: in vivo, Triticum aestivum; settings: 0 to 100 scale, 0 no effect, 100 complete control
Outline: as §1

corn = test: Test A postemergence; assay type: in vivo, Zea mays; settings: 0 to 100 scale, 0 no effect, 100 complete control
Outline: as §1

blackgrass = test: Test A postemergence; assay type: in vivo, Alopecurus myosuroides; settings: 0 to 100 scale, 0 no effect, 100 complete control
Outline: as §1

galium = test: Test A postemergence; assay type: in vivo, Galium aparine; settings: 0 to 100 scale, 0 no effect, 100 complete control
Outline: as §1

rice = test: Test B flooded paddy test; assay type: in vivo, Oryza sativa; settings: Flood, 250 g ai/ha; 0 to 100 scale where 0 is no effect and 100 is complete control
Outline: (§2)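 Plants were grown to the 2-leaf stage, then pots were flooded to 3 cm above the soil and compounds were applied directly into the paddy water. That depth was held throughout, and after 13 to 15 days in the greenhouse injury was rated visually against controls on a 0–100 scale (0 no effect, 100 complete control).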

sedge, umbrella = test: Test B flooded paddy test; assay type: in vivo, Cyperus difformis; settings: Flood, 250 g ai/ha; 0 to 100 scale where 0 is no effect and 100 is complete control
Outline: as §2

Heteranthera limosa = test: Test B flooded paddy test; assay type: in vivo; settings: Flood, 250 g ai/ha; 0 to 100 scale where 0 is no effect and 100 is complete control
Outline: as §2

barnyardgrass [13] = test: Test B flooded paddy test; assay type: in vivo, Echinochloa crus-galli; settings: Flood, 250 g ai/ha; 0 to 100 scale where 0 is no effect and 100 is complete control
Outline: as §2

| SMILES | Plant response rating, Barnyardgrass (barnyardgrass [1]) | Barnyardgrass plant response rating (0 to 100 scale, 0 is no effect, 100 is complete control) (barnyardgrass [1]) | Plant response rating, Kochia (kochia [2]) | Kochia plant response rating (0 to 100 scale) (kochia [2]) | Plant response rating, Ragweed (ragweed [3]) | Ragweed plant response rating (0 to 100 scale) (ragweed [3]) | Plant response rating, Ryegrass, Italian (Italian ryegrass [4]) | Ryegrass, Italian plant response rating (0 to 100 scale) (Italian ryegrass [4]) | Plant response rating, Foxtail, Giant (giant foxtail [5]) | Foxtail, Giant plant response rating (0 to 100 scale) (giant foxtail [5]) | Plant response rating, Pigweed (pigweed [6]) | Pigweed plant response rating (0 to 100 scale) (pigweed [6]) | Plant response rating, Barnyardgrass (barnyardgrass [7]; 31 g ai/ha) | Plant response rating, Barnyardgrass (barnyardgrass [7]; 125 g ai/ha) | Plant response rating, Kochia (kochia [8]; 31 g ai/ha) | Plant response rating, Kochia (kochia [8]; 125 g ai/ha) | Plant response rating, Ragweed (ragweed [9]; 31 g ai/ha) | Plant response rating, Ragweed (ragweed [9]; 125 g ai/ha) | Plant response rating, Ryegrass, Italian (Italian ryegrass [10]; 31 g ai/ha) | Plant response rating, Ryegrass, Italian (Italian ryegrass [10]; 125 g ai/ha) | other results |
| --- | --- | --- | --- | --- | --- | --- | --- | --- | --- | --- | --- | --- | --- | --- | --- | --- | --- | --- | --- | --- | --- |
| Cc1cc(C)n(-c2ccccc2Oc2ncc(Cl)cn2)n1 [Compound 264] | 0 | 0 | 0 | 0 | 0 | 0 | 0 | 0 | 0 | 0 | 0 | 0 | 0 | 0 | 0 | 0 | 0 | 0 | 0 | 0 | Plant response rating, Foxtail, Giant (giant foxtail [11]; 31 g ai/ha): 0; Plant response rating, Foxtail, Giant (giant foxtail [11]; 125 g ai/ha): 0; Plant response rating, Pigweed (pigweed [12]; 31 g ai/ha): 0; Plant response rating, Pigweed (pigweed [12]; 125 g ai/ha): 0; Plant response rating, Wheat (wheat; 31 g ai/ha): 0; Plant response rating, Wheat (wheat; 125 g ai/ha): 0; Plant response rating, Corn (corn; 31 g ai/ha): 0; Plant response rating, Corn (corn; 125 g ai/ha): 0; Plant response rating, Blackgrass (blackgrass; 31 g ai/ha): 0; Plant response rating, Blackgrass (blackgrass; 125 g ai/ha): 0; Plant response rating, Galium (galium; 31 g ai/ha): 0; Plant response rating, Galium (galium; 125 g ai/ha): 0; Plant response rating, Rice (rice): 0; Plant response rating, Sedge, Umbrella (sedge, umbrella): 0; Plant response rating, Ducksalad (Heteranthera limosa): 0; Plant response rating, Barnyardgrass (barnyardgrass [13]): 0 |
| Cc1cc(C(F)F)nn1-c1ccccc1Oc1ncc(Cl)cn1 [Compound 267] | 0 | 0 | 0 | 0 | 0 | 0 | 0 | 0 | 0 | 0 | 0 | 0 | 0 | 0 | 0 | 0 | 0 | 0 | 0 | 0 | Plant response rating, Foxtail, Giant (giant foxtail [11]; 31 g ai/ha): 0; Plant response rating, Foxtail, Giant (giant foxtail [11]; 125 g ai/ha): 0; Plant response rating, Pigweed (pigweed [12]; 31 g ai/ha): 0; Plant response rating, Pigweed (pigweed [12]; 125 g ai/ha): 0; Plant response rating, Wheat (wheat; 31 g ai/ha): 0; Plant response rating, Wheat (wheat; 125 g ai/ha): 0; Plant response rating, Corn (corn; 31 g ai/ha): 0; Plant response rating, Corn (corn; 125 g ai/ha): 0; Plant response rating, Blackgrass (blackgrass; 31 g ai/ha): 0; Plant response rating, Blackgrass (blackgrass; 125 g ai/ha): 0; Plant response rating, Galium (galium; 31 g ai/ha): 0; Plant response rating, Galium (galium; 125 g ai/ha): 10; Plant response rating, Rice (rice): 0; Plant response rating, Sedge, Umbrella (sedge, umbrella): 0; Plant response rating, Ducksalad (Heteranthera limosa): 0; Plant response rating, Barnyardgrass (barnyardgrass [13]): 0 |
